# pIC50: −log10 of the molar value.
# How the values were obtained:
# FLT3 = biological target: T1, FLT3 (Homo sapiens, UniProt P36888); assay: SelectScreen kinase activity assay; type: biochemical; parameters: purchased Invitrogen (SelectScreen service); settings: PHI1 versus Ponatinib
# T1 sequence (P36888 27-993): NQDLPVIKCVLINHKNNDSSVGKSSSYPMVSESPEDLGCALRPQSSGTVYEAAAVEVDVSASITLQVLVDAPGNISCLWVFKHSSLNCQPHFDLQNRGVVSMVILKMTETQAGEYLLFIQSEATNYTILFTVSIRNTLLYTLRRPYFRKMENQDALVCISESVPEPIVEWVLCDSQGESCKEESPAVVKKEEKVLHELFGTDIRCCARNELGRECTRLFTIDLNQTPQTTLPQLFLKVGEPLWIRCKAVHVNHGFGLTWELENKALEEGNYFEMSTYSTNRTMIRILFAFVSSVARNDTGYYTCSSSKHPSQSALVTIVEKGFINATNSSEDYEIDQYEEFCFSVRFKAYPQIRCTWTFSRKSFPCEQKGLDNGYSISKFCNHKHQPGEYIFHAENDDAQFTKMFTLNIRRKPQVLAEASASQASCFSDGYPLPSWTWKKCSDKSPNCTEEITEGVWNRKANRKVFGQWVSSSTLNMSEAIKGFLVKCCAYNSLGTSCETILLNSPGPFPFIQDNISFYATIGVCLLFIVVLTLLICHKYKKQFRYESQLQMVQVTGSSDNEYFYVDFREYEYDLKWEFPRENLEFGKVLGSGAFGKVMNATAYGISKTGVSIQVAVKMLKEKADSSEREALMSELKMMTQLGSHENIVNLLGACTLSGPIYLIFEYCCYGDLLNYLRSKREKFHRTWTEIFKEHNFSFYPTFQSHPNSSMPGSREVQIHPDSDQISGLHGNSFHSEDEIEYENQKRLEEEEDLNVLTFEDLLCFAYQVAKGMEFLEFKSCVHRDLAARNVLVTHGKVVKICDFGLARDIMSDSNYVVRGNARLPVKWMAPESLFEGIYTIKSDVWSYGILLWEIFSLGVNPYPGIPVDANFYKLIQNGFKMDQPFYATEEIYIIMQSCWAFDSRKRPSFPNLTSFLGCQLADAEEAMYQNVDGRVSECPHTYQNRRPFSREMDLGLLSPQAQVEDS
# Experimental: BRAF kinase assays were performed using the Z’-LYTE™ enzymatic assay (Invitrogen, USA). […] Titrations were performed using a 1:3 dilution. Assays were performed using SelectScreen (Invitrogen).
# [1] = biological target: T2, ABL1(E255K)-phosphorylated (Homo sapiens, UniProt P00519, E255K); assay: KINOMEscan scanEDGE binding; settings: KinomeEDGE scan, compound at 1 μΜ
# T2 construct: purchased Eurofins/DiscoverX KINOMEscan (scanEDGE panel)
# T2 sequence (P00519 whole entry E255K): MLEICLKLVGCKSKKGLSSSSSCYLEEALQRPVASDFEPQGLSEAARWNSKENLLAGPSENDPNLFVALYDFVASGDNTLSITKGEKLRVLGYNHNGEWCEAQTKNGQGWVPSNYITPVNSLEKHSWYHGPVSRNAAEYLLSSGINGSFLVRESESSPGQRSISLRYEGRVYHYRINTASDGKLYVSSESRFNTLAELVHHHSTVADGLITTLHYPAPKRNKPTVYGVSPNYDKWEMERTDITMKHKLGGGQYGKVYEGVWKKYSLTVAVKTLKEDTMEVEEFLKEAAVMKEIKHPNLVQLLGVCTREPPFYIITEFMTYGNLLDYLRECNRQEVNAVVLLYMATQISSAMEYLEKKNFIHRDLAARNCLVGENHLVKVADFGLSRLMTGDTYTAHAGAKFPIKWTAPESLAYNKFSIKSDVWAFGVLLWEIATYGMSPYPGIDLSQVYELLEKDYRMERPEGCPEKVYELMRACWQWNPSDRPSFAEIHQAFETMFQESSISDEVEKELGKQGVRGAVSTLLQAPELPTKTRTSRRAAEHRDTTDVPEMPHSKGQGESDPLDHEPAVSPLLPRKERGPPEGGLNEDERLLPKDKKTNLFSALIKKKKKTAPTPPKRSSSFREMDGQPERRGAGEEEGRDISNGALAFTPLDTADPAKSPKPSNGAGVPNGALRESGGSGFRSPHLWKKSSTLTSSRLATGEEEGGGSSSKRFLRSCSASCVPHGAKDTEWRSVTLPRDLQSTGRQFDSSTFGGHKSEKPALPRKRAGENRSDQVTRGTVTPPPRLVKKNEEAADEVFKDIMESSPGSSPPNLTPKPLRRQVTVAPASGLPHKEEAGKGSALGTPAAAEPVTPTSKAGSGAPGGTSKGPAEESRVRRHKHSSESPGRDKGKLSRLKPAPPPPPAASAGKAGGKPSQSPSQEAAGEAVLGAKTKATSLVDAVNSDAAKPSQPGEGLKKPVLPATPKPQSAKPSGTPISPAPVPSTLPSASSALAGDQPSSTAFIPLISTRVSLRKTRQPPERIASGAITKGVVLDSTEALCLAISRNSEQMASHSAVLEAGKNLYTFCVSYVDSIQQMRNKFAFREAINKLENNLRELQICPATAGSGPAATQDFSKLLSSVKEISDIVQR
# [2] = tested on: HEK293H cells expressing p61BRAF^V600E; assay: p-ERK inhibition in transfected HEK293H cells; type: cell-based; settings: HEK293-H, 1 μM lapatinib pre-treatment 1 h, PHI1 1 h, read-out: IC50 of pERK inhibition
# Experimental: (§1) HEK239H cells were seeded in 6-well plates (1 × 10^6 cells per well) and transfected the following day using Lipofectamine 3000 (Invitrogen L3000008) according to the manufacturer’s instructions. 2 μg of p61BRAF^V600E plasmid (pcDNA-3 vector) DNA per well was employed. […] ERK signaling and BRAF^V600E expression was assessed by western blot. […] In addition, HEK239H cells seeded in 6-well plates (1 × 10^6 cells per well) were transfected with Lipofectamine 3000 containing 2 μg of p61BRAF^V600E plasmid or 2 μg of p61BRAF^V600ER509H plasmid (pcDNA-3 vector) DNA per well. 24 h after transfection cells were treated with DMSO or increasing concentrations of PHI1 for 1 h and ERK signaling, and BRAF expression was assessed by western blot.
# [3] = tested on: HEK293H cells expressing p61BRAF^V600E/R509H; assay: p-ERK inhibition in transfected HEK293H cells; type: cell-based; settings: HEK293-H, 1 μM lapatinib pre-treatment 1 h, PHI1 1 h, read-out: IC50 of pERK inhibition
# Experimental: as §1
# ERBB4 = biological target: T3, ERBB4 (Homo sapiens, UniProt Q15303); assay: KINOMEscan scanEDGE binding; settings: KinomeEDGE scan, compound at 1 μΜ
# T3 construct: purchased Eurofins/DiscoverX KINOMEscan (scanEDGE panel)
# T3 sequence (Q15303 26-1308): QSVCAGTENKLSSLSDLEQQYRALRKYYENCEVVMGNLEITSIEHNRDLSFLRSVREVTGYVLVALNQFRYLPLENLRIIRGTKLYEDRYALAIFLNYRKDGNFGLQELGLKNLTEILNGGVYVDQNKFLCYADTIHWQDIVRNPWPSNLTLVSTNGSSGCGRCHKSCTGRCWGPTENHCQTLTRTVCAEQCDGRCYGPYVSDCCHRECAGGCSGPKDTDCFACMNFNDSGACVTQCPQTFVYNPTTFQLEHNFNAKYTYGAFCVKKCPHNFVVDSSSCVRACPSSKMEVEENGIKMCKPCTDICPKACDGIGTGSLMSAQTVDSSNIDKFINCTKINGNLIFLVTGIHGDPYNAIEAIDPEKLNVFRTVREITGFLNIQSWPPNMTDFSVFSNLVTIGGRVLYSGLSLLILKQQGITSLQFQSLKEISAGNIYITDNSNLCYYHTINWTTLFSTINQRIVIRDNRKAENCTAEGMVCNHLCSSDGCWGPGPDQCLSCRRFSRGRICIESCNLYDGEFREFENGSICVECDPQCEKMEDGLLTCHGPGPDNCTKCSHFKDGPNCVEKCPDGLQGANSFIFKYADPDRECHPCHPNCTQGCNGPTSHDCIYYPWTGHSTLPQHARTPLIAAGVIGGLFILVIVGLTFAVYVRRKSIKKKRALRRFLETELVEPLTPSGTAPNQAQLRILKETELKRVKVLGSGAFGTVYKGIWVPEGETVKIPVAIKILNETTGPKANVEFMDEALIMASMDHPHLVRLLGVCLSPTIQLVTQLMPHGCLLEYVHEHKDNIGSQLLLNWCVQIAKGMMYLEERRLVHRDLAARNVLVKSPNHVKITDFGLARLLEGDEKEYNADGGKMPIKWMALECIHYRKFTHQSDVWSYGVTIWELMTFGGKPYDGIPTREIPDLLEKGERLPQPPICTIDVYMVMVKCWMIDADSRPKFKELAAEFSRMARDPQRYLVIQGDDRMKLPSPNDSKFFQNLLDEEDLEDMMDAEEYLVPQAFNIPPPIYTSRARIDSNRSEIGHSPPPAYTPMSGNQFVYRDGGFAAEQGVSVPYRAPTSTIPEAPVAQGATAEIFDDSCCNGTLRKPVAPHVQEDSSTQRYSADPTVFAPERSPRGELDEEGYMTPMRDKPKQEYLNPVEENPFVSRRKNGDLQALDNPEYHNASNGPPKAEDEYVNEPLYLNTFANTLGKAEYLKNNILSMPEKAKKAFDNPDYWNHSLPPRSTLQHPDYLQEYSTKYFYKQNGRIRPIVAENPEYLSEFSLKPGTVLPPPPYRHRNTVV
# [4] = tested on: melanoma cells dependent on BRAF^V600E, p61BRAF^V600E, and RAS^MUT/BRAF^WT; assay: 3D culture colony formation; type: cell-based; settings: 0.1-10 μM, 5th day of culture, compared to Vemurafenib
# Experimental: 3D laminin-rich extracellular matrix cultures were prepared by trypsinization of melanoma cells from tissue culture plastic, seeding of single cells on top of a thin layer of Growth Factor-Reduced Matrigel (BD Biosciences, Franklin Lakes, NJ), and the addition of a medium containing 5% Matrigel. The cells were seeded at the density of 40,000 cells per cm^2. All 3D cell cultures were performed in DMEM supplemented with 5 μg/mL bovine insulin with Zinc (Gibco), 15 μg/mL bovine pituitary extract (Gibco), 0.5 ng/mL epidermal growth factor (Sigma-Aldrich, St. Louis, MO) and 2% fetal bovine serum. 3D cultures were maintained with media and/or drug-treatment changes every second day, and photographs were taken at the end of the 5th day. The size of single cell colonies was estimated with ImageJ (Version 1.51).
# FGFR3 = biological target: T4, FGFR3 (Homo sapiens, UniProt P22607); assay: KINOMEscan scanEDGE binding; settings: KinomeEDGE scan, compound at 1 μΜ
# T4 construct: purchased Eurofins/DiscoverX KINOMEscan (scanEDGE panel)
# T4 sequence (P22607 23-806): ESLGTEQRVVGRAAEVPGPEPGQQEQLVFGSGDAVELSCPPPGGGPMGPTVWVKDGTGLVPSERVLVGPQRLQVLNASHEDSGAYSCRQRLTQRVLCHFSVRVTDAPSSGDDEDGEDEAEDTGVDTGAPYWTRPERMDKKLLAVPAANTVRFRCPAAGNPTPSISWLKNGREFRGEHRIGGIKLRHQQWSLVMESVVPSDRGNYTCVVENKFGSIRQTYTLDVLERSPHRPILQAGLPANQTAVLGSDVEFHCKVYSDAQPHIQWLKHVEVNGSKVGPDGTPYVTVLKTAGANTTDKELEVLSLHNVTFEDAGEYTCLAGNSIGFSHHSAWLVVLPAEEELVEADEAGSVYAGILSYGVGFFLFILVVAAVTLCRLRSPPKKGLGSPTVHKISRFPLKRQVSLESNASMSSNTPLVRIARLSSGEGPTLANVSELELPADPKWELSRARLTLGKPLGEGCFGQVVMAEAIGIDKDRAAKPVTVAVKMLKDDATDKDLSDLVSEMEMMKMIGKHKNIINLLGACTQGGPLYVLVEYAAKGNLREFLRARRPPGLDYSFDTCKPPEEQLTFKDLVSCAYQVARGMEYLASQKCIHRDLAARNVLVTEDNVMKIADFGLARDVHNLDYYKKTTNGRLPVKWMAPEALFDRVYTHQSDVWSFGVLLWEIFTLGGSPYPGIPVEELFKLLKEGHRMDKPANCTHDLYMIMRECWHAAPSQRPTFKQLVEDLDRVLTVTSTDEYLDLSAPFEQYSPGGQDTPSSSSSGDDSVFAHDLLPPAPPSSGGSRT
# BTK = biological target: T5, BTK (Homo sapiens, UniProt Q06187); assay: KINOMEscan scanEDGE binding; settings: KinomeEDGE scan, compound at 1 μΜ
# T5 construct: purchased Eurofins/DiscoverX KINOMEscan (scanEDGE panel)
# T5 sequence (Q06187 whole entry): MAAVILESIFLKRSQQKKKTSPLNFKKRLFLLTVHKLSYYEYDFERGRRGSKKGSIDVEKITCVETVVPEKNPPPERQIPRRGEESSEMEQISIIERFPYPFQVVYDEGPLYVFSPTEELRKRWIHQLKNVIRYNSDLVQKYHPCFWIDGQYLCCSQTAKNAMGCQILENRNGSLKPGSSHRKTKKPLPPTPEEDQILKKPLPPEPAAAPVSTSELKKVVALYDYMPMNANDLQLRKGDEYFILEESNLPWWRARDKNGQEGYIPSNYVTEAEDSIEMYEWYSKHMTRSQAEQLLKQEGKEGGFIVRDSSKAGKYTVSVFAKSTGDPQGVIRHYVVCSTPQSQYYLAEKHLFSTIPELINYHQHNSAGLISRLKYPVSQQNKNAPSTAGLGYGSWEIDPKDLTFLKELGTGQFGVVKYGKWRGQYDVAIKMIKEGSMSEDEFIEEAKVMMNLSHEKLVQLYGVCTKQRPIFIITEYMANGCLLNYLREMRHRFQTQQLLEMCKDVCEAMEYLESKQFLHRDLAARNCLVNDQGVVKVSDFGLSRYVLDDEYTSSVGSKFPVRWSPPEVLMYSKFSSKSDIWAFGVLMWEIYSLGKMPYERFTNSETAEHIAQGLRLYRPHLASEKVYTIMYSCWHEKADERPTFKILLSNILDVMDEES
# IKK-beta = biological target: T6, IKK-beta (Homo sapiens, UniProt O14920); assay: KINOMEscan scanEDGE binding; settings: KinomeEDGE scan, compound at 1 μΜ
# T6 construct: purchased Eurofins/DiscoverX KINOMEscan (scanEDGE panel)
# T6 sequence (O14920 whole entry): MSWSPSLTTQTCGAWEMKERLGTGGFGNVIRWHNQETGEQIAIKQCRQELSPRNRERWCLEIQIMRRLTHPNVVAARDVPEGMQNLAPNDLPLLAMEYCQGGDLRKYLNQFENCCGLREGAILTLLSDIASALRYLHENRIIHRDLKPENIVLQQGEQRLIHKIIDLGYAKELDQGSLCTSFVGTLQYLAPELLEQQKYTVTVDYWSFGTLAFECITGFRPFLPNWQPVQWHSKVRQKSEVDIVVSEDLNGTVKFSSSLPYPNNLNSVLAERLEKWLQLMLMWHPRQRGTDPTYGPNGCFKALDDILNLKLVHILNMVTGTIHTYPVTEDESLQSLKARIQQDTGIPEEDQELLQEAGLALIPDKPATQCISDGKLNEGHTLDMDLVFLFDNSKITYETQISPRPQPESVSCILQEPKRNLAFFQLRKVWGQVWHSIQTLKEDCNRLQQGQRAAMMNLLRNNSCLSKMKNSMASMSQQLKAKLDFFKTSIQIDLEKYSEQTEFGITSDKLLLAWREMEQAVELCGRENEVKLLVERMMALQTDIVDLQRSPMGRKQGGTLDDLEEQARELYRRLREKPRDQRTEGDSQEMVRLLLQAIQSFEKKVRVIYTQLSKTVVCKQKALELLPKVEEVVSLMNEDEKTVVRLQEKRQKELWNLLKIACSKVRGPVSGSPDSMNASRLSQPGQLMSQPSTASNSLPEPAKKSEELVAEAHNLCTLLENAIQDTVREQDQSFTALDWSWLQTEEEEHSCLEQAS
Compound,reduction of inhibitory activity on FLT3 compared to Ponatinib (FLT3),% Ctrl ABL1(E255K)-phosphorylated [1],pIC50 [2],pIC50 [3],% Ctrl ERBB4 (ERBB4),inhibition of colony formation in 3D culture (in words) [4],% Ctrl FGFR3 (FGFR3),% Ctrl BTK (BTK),% Ctrl IKK-beta (IKK-beta)
Cc1ccc(C(=O)Nc2ccc(CNCCN3CCOCC3)c(C(F)(F)F)c2)cc1C#Cc1cnc2cccnn12 [PHI1],tenfold,0.25 % Ctrl,5.72,5.17,,,,,
"Cc1ccc(C(=O)Nc2ccc(CN3CCN(C)CC3)c(C(F)(F)F)c2)cc1C#Cc1cnc2cccnn12 [Ponatinib, 3-[2-(imidazo[1,2-b]pyridazin-3-yl)ethynyl]-4-methyl-N-{4-[(4-methylpiperazin-1-yl)methyl]-3-(trifluoromethyl)phenyl}benzamide]",,,,,27 % Ctrl,increased efficacy to inhibit colony formation as compared to Vemurafenib,0.9 % Ctrl,22 % Ctrl,1.4 % Ctrl

# Source: PMC7462985, “Inhibitors of BRAF dimers using an allosteric site” (Nature Communications, 2020)
